Experimental data as given in ChEMBL document CHEMBL6083273, “Targeting Periplakin of Novel Benzenesulfonamides as Highly Selective Agonists for the Treatment of Vitiligo” (2024).
The source made the active and inactive calls. No cut-off for these calls is given here.

Tests used:
Danio rerio [1] = species on record: Danio rerio; assay: Induction of melanogenesis in zebrafish treated for 24 hrs by absorbance based assay (reference value: 98.2 to 100.3 %); assay type: functional
Danio rerio [2] = species on record: Danio rerio; assay: Induction of melanogenesis in zebrafish at 40 uM treated for 24 hrs by absorbance based assay; assay type: functional, organism-based
Danio rerio [3] = species on record: Danio rerio; assay: Effect on tryptophan metabolism in zebrafish embryo assessed as 3-HAA metabolite level at 10 uM by LC/MS analysis; assay type: functional
Danio rerio [4] = species on record: Danio rerio; assay: Effect on tryptophan metabolism in zebrafish embryo assessed as 3-HK metabolite level at 10 uM by LC/MS analysis; assay type: functional
Danio rerio [5] = species on record: Danio rerio; assay: Effect on tryptophan metabolism in zebrafish embryo assessed as 5-HIAA metabolite level at 10 uM by LC/MS analysis; assay type: functional
Danio rerio [6] = species on record: Danio rerio; assay: Effect on tryptophan metabolism in zebrafish embryo assessed as 5-HTP metabolite level at 10 uM by LC/MS analysis; assay type: functional
Danio rerio [7] = species on record: Danio rerio; assay: Effect on tryptophan metabolism in zebrafish embryo assessed as AA metabolite level at 10 uM by LC/MS analysis; assay type: functional
Danio rerio [8] = species on record: Danio rerio; assay: Effect on tryptophan metabolism in zebrafish embryo assessed as IA metabolite level at 10 uM by LC/MS analysis; assay type: functional
Danio rerio [9] = species on record: Danio rerio; assay: Effect on tryptophan metabolism in zebrafish embryo assessed as IAA metabolite level at 10 uM by LC/MS analysis; assay type: functional
Danio rerio [10] = species on record: Danio rerio; assay: Effect on tryptophan metabolism in zebrafish embryo assessed as IAN metabolite level at 10 uM by LC/MS analysis; assay type: functional
Danio rerio [11] = species on record: Danio rerio; assay: Effect on tryptophan metabolism in zebrafish embryo assessed as ICA metabolite level at 10 uM by LC/MS analysis; assay type: functional
Danio rerio [12] = species on record: Danio rerio; assay: Effect on tryptophan metabolism in zebrafish embryo assessed as LE metabolite level at 10 uM by LC/MS analysis; assay type: functional
Danio rerio [13] = species on record: Danio rerio; assay: Effect on tryptophan metabolism in zebrafish embryo assessed as ILA metabolite level at 10 uM by LC/MS analysis; assay type: functional
Danio rerio [14] = species on record: Danio rerio; assay: Effect on tryptophan metabolism in zebrafish embryo assessed as indole metabolite level at 10 uM by LC/MS analysis; assay type: functional
Danio rerio [15] = species on record: Danio rerio; assay: Effect on tryptophan metabolism in zebrafish embryo assessed as IPA metabolite level at 10 uM by LC/MS analysis; assay type: functional
Danio rerio [16] = species on record: Danio rerio; assay: Effect on tryptophan metabolism in zebrafish embryo assessed as KYNA metabolite level at 10 uM by LC/MS analysis; assay type: functional
Danio rerio [17] = species on record: Danio rerio; assay: Effect on tryptophan metabolism in zebrafish embryo assessed as NA metabolite level at 10 uM by LC/MS analysis; assay type: functional
Danio rerio [18] = species on record: Danio rerio; assay: Effect on tryptophan metabolism in zebrafish embryo assessed as NAS metabolite level at 10 uM by LC/MS analysis; assay type: functional
Danio rerio [19] = species on record: Danio rerio; assay: Effect on tryptophan metabolism in zebrafish embryo assessed as skatole metabolite level at 10 uM by LC/MS analysis; assay type: functional
Danio rerio [20] = species on record: Danio rerio; assay: Effect on tryptophan metabolism in zebrafish embryo assessed as Trp metabolite level at 10 uM by LC/MS analysis; assay type: functional
Danio rerio [21] = species on record: Danio rerio; assay: Effect on tryptophan metabolism in zebrafish embryo assessed as Xa metabolite level at 10 uM by LC/MS analysis; assay type: functional
Danio rerio [22] = species on record: Danio rerio; assay: Induction of melanogenesis in zebrafish at 0.1 nM treated for 24 hrs by absorbance based assay; assay type: functional, organism-based
Danio rerio [23] = species on record: Danio rerio; assay: Induction of melanogenesis in zebrafish treated for 24 hrs by absorbance based assay; assay type: functional, organism-based
Danio rerio [24] = species on record: Danio rerio; assay: Induction of melanogenesis in zebrafish at 40 uM treated for 24 hrs by absorbance based assay relative to control; assay type: functional

Row | SMILES | Activity (Danio rerio [1]) [%] | other results
1 | Cc1cc(-c2ccc([C@H](C)Nc3nccc(NS(=O)(=O)c4cc(C(F)(F)F)cc(C(F)(F)F)c4)n3)cc2)ccc1F | 114.22 | 
2 | O=[N+]([O-])c1cccc(S(=O)(=O)Nc2ccnc(NCc3ccc(F)cc3)n2)c1 | 115.42 | 
3 | Cc1cc(-c2ccc([C@H](C)Nc3nccc(NS(=O)(=O)c4cc(F)cc(F)c4)n3)cc2)ccc1F | 81.815 | 
4 | C[C@H](Nc1nccc(NS(=O)(=O)c2cccc([N+](=O)[O-])c2)n1)c1ccc(-c2ccc(F)c(COCCCNC(=O)CCCC[C@@H]3SC[C@@H]4NC(=O)N[C@@H]43)c2)cc1 |  | Activity (Danio rerio [2]): Active
5 | Cc1cc(-c2ccc([C@H](C)Nc3nccc(NS(=O)(=O)c4ccc(F)cc4)n3)cc2)ccc1F | 135.12 | Activity (Danio rerio [3]): 1.15 nmol/kg; Activity (Danio rerio [4]): 109.36 nmol/kg; Activity (Danio rerio [5]): 105.04 nmol/kg; Activity (Danio rerio [6]): 42.55 nmol/kg; Activity (Danio rerio [7]): 13.62 nmol/kg; Activity (Danio rerio [8]): 21.42 nmol/kg; Activity (Danio rerio [9]): 0.85 nmol/kg; Activity (Danio rerio [10]): 16.03 nmol/kg; Activity (Danio rerio [11]): 25.11 nmol/kg; Activity (Danio rerio [12]): 53.82 nmol/kg; Activity (Danio rerio [13]): 108.22 nmol/kg; Activity (Danio rerio [14]): 754.01 nmol/kg; Activity (Danio rerio [15]): 22.24 nmol/kg; Activity (Danio rerio [16]): 1.12 nmol/kg; Activity (Danio rerio [17]): 2175.78 nmol/kg; Activity (Danio rerio [18]): 0.09 nmol/kg; Activity (Danio rerio [19]): 506.87 nmol/kg; Activity (Danio rerio [20]): 234150.9 nmol/kg; Activity (Danio rerio [21]): 468.35 nmol/kg
6 | C[C@H](Nc1nccc(NS(=O)(=O)c2cccc([N+](=O)[O-])c2)n1)c1ccccc1 | 99.105 | 
7 | C[C@H](Nc1nccc(NS(=O)(=O)c2cccc([N+](=O)[O-])c2)n1)c1ccc(-c2cccs2)cc1 | 94.688 | 
8 | O=[N+]([O-])c1cccc(S(=O)(=O)Nc2ccnc(NCc3ccc(C(F)(F)F)cc3)n2)c1 | 93.387 | 
9 | C=C1/C(=C\C=C2/CCC[C@]3(C)[C@@H]([C@H](C)/C=C/[C@@H](O)C4CC4)CC[C@@H]23)C[C@@H](O)C[C@@H]1O |  | Activity (Danio rerio [22]): Active
10 | C[C@H](Nc1nccc(NS(=O)(=O)c2cccc([N+](=O)[O-])c2)n1)c1ccc(-c2ccc(F)cc2)cc1 | 146.53 | 
11 | Cc1ccc(S(=O)(=O)Nc2ccnc(N[C@@H](C)c3ccc(-c4ccc(F)c(C)c4)cc3)n2)cc1 | 135.69 | 
12 | COc1ccc(CNc2nccc(NS(=O)(=O)c3cccc([N+](=O)[O-])c3)n2)cc1 | 132.54 | 
13 | Cc1cccc(S(=O)(=O)Nc2ccnc(N[C@@H](C)c3ccc(-c4ccc(F)c(C)c4)cc3)n2)c1 | 46.585 | 
14 | O=[N+]([O-])c1cccc(S(=O)(=O)Nc2ccnc(NCc3ccccc3)n2)c1 | 107.18 | 
15 | C[C@H](Nc1nccc(NS(=O)(=O)c2cccc([N+](=O)[O-])c2)n1)c1ccc(-c2ccccc2)cc1 | 106.72 | 
16 | Cc1cc(-c2ccc([C@H](C)Nc3nccc(NS(=O)(=O)c4ccccc4)n3)cc2)ccc1F |  | Activity (Danio rerio [23]): Dose-dependent-effect; Emax at 40 µM (Danio rerio [24]): 139%
17 | Cc1ccc(CNc2nccc(NS(=O)(=O)c3cccc([N+](=O)[O-])c3)n2)cc1 | 148.37 | 
18 | C[C@H](Nc1nccc(NS(=O)(=O)c2cccc([N+](=O)[O-])c2)n1)c1ccc(C2CC2)cc1 | 149.56 | 
19 | Cc1cc(-c2ccc([C@H](C)Nc3nccc(NS(=O)(=O)c4ccccc4C)n3)cc2)ccc1F | 63.17 | 
20 | COc1ccc(S(=O)(=O)Nc2ccnc(N[C@@H](C)c3ccc(-c4ccc(F)c(C)c4)cc3)n2)cc1 | 67.56 | 
21 | Cc1cc(-c2ccc([C@H](C)Nc3nccc(NS(=O)(=O)Cc4ccccc4)n3)cc2)ccc1F | 132.22 | 
22 | Cc1cc(-c2ccc([C@H](C)Nc3nccc(NS(=O)(=O)c4ccc5ccccc5c4)n3)cc2)ccc1F | 89.349 | 
23 | O=[N+]([O-])c1cccc(S(=O)(=O)Nc2ccnc(Nc3ccccc3)n2)c1 | 155.77 | 
24 | C[C@H](Nc1nccc(NS(=O)(=O)c2cccc([N+](=O)[O-])c2)n1)c1ccc([N+](=O)[O-])cc1 | 129.75 | 
25 | C[C@H](Nc1nccc(NS(=O)(=O)c2cccc([N+](=O)[O-])c2)n1)c1ccc(-c2ccc3ccccc3c2)cc1 | 77.723 | 
26 | Cc1cc(-c2ccc([C@H](C)Nc3nccc(NS(=O)(=O)c4cccc(C(F)(F)F)c4)n3)cc2)ccc1F | 58.78 | 
